Reference: US9364479B2, “Use of a receptor-type kinase modulator for treating polycystic kidney disease” (SYMPHONY EVOLUTION, INC., priority 2010, dated 2016)
Where two headings read alike, the source gives them in different places.

Columns and labels:
InsR = molecular target: T1, InsR (Homo sapiens, UniProt P06213); assay: Radiometric 33P-phosphoryl transfer kinase assay; assay type: biochemical; conditions: ATP at Km
T1 construct: residues P948-S1343 of human insulin receptor 1, Proqinase; purchased Proqinase
T1 sequence (P06213 987-1382): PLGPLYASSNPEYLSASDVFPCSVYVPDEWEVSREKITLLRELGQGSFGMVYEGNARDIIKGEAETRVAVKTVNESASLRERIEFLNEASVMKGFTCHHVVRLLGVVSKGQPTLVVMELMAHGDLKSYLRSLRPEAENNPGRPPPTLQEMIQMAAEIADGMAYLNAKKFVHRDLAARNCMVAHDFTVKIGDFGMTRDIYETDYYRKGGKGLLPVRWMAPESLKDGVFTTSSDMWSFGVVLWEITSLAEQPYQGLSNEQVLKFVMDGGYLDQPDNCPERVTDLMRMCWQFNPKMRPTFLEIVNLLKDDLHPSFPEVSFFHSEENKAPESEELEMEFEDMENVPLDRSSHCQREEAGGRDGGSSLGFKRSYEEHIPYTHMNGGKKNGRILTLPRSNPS
Method: (§1) Dose-response experiments were done using 10 different inhibitor concentrations in 384-well microtiter plates. The ATP concentration used for each assay was equivalent to the Km for each kinase. IC50 values were calculated by nonlinear regression analysis using the four-variable equation: Y=min+(max−min)/[1+([I]/IC50)N], where Y is the observed signal, [I] is the inhibitor concentration, min is the background signal in the absence of enzyme (0% enzyme activity), max is the signal in the absence of inhibitor (100% enzyme activity), IC50 is the inhibitor concentration required at 50% enzyme inhibition, and N represents the empirical Hill slope as a measure of cooperativity.
(§2) A radiometric ^33P-Phosphoryl transfer kinase assay was used to measure EphB4, insulin-like growth factor-I receptor (IGFR-1), and insulin receptor (IRK) activity. Reactions were performed in 384-well white, clear bottom, high-binding microtiter plates (Greiner). Plates were coated with 2 μg/well peptide substrate in a 50 μL volume. […] The coated plates were washed once with 50 μL assay buffer following overnight incubation at room temperature. Test compound and either 5 nmol/L EphB4 (residues E605-E890 of human EphB4 containing a six histidine NH2-terminal tag, expressed in a baculovirus expression system and purified using metal chelate chromatography), 4 nmol/L insulin-like growth factor-I receptor (residues M954-C1367 of human insulin-like growth factor-I receptor, Proqinase GmbH), or 15 nmol/L insulin receptor 1 (residues P948-S1343 of human insulin receptor 1, Proqinase) were combined with [^33P]g-ATP (5 μmol/L, 3.3 μCi/nmol) in a total volume of 20 μL. The reaction mixture was incubated at room temperature for 1.5 to 2.5 h and terminated by aspiration. The microtiter plates were subsequently washed six times with 0.05% Tween-PBS buffer. Scintillation fluid (50 μL/well) was added and incorporated ^33P was measured by liquid scintillation spectrometry using a MicroBeta scintillation counter (Perkin-Elmer).

IGF1R = molecular target: T2, IGF1R (Homo sapiens, UniProt P08069); assay: Radiometric 33P-phosphoryl transfer kinase assay; assay type: biochemical; conditions: ATP at Km
T2 construct: residues M954-C1367 of human insulin-like growth factor-I receptor, Proqinase GmbH; purchased Proqinase GmbH
T2 sequence (P08069 954-1367): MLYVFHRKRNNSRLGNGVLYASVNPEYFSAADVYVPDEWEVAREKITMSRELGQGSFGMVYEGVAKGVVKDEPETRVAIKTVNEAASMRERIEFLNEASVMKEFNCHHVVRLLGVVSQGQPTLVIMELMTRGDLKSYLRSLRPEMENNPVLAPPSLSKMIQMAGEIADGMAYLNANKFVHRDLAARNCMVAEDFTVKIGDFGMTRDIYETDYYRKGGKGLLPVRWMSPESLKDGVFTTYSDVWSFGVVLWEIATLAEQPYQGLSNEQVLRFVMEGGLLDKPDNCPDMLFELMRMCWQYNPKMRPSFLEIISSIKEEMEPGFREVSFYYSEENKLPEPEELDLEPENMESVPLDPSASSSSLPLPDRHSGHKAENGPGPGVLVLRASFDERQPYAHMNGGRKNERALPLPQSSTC
Method: as §1, §2

[1] = molecular target: T3, Choline Acetyltransferase (Homo sapiens, UniProt P28329); assay: NovaScreen assay; assay type: biochemical; conditions: read-out: Inhibition, 10 μM XL-647
T3 construct: NovaScreen
T3 sequence (P28329 whole entry): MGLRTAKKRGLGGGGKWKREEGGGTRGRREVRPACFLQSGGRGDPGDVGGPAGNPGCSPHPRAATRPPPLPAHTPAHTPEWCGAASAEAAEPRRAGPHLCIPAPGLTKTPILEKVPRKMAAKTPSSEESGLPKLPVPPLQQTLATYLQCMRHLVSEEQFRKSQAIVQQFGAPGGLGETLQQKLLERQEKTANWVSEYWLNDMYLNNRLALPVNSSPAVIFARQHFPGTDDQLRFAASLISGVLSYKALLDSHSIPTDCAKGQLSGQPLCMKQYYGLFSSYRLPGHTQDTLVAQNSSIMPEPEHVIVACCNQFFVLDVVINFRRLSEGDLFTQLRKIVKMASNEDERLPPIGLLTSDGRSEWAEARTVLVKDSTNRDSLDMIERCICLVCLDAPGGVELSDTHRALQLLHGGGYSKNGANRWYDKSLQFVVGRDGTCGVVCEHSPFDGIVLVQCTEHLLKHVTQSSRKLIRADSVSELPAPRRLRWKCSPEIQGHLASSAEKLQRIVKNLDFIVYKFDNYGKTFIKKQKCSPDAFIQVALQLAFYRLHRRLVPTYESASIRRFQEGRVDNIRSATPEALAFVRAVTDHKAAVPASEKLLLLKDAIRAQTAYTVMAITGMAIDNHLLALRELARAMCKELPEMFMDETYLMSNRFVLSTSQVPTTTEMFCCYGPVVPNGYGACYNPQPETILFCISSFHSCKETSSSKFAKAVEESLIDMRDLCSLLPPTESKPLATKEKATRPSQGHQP

p-Y-EGFR = p-Y-EGFR (Homo sapiens, UniProt P00533); assay: In vivo receptor phosphorylation, A431 xenografts; parameters: species or system mouse
p-Y-EGFR, sequence (P00533 25-1210): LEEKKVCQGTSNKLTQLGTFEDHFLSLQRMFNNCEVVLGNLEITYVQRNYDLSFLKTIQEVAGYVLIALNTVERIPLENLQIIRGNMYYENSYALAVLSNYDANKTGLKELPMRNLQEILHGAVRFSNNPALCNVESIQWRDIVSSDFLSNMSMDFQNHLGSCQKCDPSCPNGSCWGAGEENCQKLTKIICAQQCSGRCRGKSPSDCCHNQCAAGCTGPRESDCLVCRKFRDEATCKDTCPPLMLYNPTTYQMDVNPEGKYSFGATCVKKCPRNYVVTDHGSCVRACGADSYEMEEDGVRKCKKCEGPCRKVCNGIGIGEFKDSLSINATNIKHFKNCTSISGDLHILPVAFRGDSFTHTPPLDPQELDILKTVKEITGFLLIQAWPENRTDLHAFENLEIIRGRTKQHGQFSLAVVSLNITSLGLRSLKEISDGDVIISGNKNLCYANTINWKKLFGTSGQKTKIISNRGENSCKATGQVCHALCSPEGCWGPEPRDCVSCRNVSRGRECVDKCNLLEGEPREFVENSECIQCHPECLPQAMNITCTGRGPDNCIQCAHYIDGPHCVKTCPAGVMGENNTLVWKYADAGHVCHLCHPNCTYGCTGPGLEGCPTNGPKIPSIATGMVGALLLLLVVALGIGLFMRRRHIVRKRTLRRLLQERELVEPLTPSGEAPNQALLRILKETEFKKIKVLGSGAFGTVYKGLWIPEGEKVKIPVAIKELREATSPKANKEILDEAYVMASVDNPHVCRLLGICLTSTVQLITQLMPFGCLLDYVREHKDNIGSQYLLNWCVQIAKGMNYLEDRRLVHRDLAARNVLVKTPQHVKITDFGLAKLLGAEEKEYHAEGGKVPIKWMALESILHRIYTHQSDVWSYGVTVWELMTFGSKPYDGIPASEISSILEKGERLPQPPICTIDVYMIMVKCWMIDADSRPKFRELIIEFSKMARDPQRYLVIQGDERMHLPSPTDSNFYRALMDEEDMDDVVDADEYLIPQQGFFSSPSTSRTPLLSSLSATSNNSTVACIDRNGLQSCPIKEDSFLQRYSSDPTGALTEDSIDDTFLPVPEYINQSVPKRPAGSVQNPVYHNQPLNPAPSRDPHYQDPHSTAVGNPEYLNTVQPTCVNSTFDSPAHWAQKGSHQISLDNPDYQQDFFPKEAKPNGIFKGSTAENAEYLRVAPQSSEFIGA

CYP3A4 = CYP3A4 (Homo sapiens, UniProt P08684); conditions: microsomes
CYP3A4, sequence (P08684 whole entry): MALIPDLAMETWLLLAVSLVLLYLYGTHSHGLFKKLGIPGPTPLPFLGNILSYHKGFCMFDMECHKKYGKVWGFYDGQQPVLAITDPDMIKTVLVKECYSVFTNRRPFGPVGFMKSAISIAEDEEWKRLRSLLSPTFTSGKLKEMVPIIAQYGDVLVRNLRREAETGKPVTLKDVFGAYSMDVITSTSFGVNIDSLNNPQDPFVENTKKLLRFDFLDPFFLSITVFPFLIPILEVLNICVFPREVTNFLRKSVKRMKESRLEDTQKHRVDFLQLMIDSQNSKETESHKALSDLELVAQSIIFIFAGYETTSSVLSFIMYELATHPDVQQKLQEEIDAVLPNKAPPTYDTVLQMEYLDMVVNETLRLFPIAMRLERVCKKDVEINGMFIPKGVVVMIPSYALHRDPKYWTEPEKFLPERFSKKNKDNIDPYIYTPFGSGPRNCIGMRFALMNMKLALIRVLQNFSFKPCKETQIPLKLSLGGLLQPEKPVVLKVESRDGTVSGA

bpk mice = system: bpk mice
Excerpt: The BPK model of ARPKD retains the same altered location of EGFR that is seen in murine and human ADPKD. This model is therefore widely accepted as a general means for affecting the EGFR abnormality in PKD, both ARPKD and ADPKD. The BPK model arose as a spontaneous mutation in an inbred colony of BALB/c mice. Homozygous bpk mice develop massively enlarged kidneys and die of renal failure at an average postnatal age of 24 days (PN-24). […] Extra renal manifestations include biliary proliferation and ductal ectasia. Because of the recessive nature of the disease, wild type +/+ and heterozygous bpk/+ mice are phenotypically normal. The primary measurement used in these studies is a comparison of the kidney weight to body weight ratio (KW/BW). […] Additional measurements include assessment of renal function (BUN, creatinine and MUCA) and histological evaluation of kidney size and collecting tubules-cystic index (CT-CI).
These animals were housed in Medical College of Wisconsin vivarium facilities. All animal experiments were conducted in accordance with policies of the NIH Guide for the Care and Use of Laboratory Animals and the Institutional Animal Care and Use Committee of the Medical College of Wisconsin.
Animals were treated from PN-7 through PN-21 and evaluated for extent of disease. The identity of […] animals can be readily determined post-mortem by the presence of greatly enlarged kidneys. On PN-21, the study was terminated and animals were sacrificed. The mass of each animal was determined. Both kidneys from each animal were excised and weighed. The kidney weight to body weight ratio (KW/BW) was determined by the following formula: KW/BW=[mass of both kidneys]/[mass of animal].
In addition, renal cystic index (CI) was calculated. Lectins specific to the proximal tubules (PTs) (lotus tetragonolobus [LTA]) and collecting tubules (CTs) (Dolichos biflorus agglutins [DBA]) were stained and used to assess severity of cystic dilations on a scale from 0-5. Renal function was assessed by obtaining BUN and creatinine levels via cardiac puncture. MUCA was measured after keeping the animals without water for 12 hrs.

[2] = system: PC-3 human tumor xenograft; assay: PC-3 xenograft, tumor growth; assay type: in vivo; conditions: Mus musculus; qd × 28
Method: The response of tumors to treatment was determined by comparing the mean tumor weight of the treatment group with the appropriate control group. Percentage inhibition of tumor growth was determined with the following formula: Percentage inhibition=100×[1−(Xf−Xo)/(Yf−Yo)], where Xf and Yf are the mean tumor weights of the treatment and control groups, respectively, on day f, and Xo and Yo are the mean tumor weights of treatment and control groups respectively, on day zero (staged tumor weights after grouping)

Endothelin, ET-B (Human) = molecular target: T4, Endothelin, ET-B (Human) (Homo sapiens, UniProt P24530); assay: NovaScreen assay; assay type: binding; conditions: read-out: Inhibition, 10 μM XL-647
T4 construct: NovaScreen
T4 sequence (P24530 27-442): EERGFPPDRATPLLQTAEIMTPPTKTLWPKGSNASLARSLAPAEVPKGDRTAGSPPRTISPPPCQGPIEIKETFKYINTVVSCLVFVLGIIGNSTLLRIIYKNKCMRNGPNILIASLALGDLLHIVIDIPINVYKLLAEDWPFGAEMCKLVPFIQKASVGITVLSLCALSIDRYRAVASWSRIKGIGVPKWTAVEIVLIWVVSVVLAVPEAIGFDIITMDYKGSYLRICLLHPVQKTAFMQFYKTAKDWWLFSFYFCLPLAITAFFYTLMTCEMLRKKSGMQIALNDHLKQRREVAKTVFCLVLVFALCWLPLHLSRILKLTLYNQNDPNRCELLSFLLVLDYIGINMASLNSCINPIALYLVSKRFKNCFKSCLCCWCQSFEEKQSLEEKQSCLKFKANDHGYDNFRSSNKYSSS

[3] = 7.5 mg/kg/day, PN Day 21, 7.5 mg/kg/day
[4] = 7.5 mg/kg/day, PN Day 21, listed as PRIM-001, 7.5 mg/kg/day

COc1cc2c(Nc3ccc(Cl)c(Cl)c3F)ncnc2cc1OC[C@@H]1C[C@@H]2CN(C)C[C@@H]2C1 [XL-647, N-(3,4-dichloro-2-fluorophenyl)-7-({[(3aR,5r,6aS)-2-methyloctahydrocyclopenta[c]pyrrol-5-yl]methyl}oxy)-6-(methyloxy)quinazolin-4-amine]
IC50 (InsR): > 26 µM | IC50 (IGF1R): > 10 µM | inhibition at 10 µM [1]: 1.27% | Single Dose Duration of Action (100 mg/kg, >50% inhibition) (p-Y-EGFR; A431 xenografts): >72 h | inhibition at 3 mg/kg (p-Y-EGFR; A-431, mouse, 3 mg/kg, dosed 3.5 hours before EGF): 41% | inhibition at 10 mg/kg (p-Y-EGFR; A-431, mouse, 10 mg/kg, dosed 3.5 hours before EGF): 70% | inhibition at 30 mg/kg (p-Y-EGFR; A-431, mouse, 30 mg/kg (plasma 4 μM), dosed 3.5 hours before EGF): 89% | inhibition at 100 mg/kg (p-Y-EGFR; A-431, mouse, 100 mg/kg, dosed 3.5 hours before EGF): 93% | IC50 (p-Y-EGFR; in vivo, A431 xenografts, PO, read-out: Estimated IC50 (plasma concentration)): 0.72 µM | CYP3A4 inhibition, in words (CYP3A4): but not CYP3A4 | decrease of CT-CI (bpk mice; 7.5 mg/kg q.d.): 25% | decrease of KW/BW (bpk mice; 7.5 mg/kg q.d.): 21.5% | decrease of creatinine (bpk mice; 7.5 mg/kg q.d.): 8.3% | improvement of MUCA (bpk mice; 7.5 mg/kg q.d.): 20.1% | reduction of kidney weight (bpk mice; 7.5 mg/kg q.d.): 21.8% | decrease of BUN (bpk mice; 7.5 mg/kg q.d., 7.5 mg/kg): 42% | BUN (bpk mice; 7.5 mg/kg/day, PN Day 21): 63.43 mg/dL | CT-CI (bpk mice; 7.5 mg/kg/day, PN Day 21): 3.60 | Creatinine (bpk mice; 7.5 mg/kg/day, PN Day 21): 0.44 mg/dL | MUCA (bpk mice; 7.5 mg/kg/day, PN Day 21): 560.0 mOsmol | Kidney Weight (bpk mice; [3]): 1.61 ± 0.23 g | Kidney/Body weight (bpk mice; [3]): 15.34±1.26% | Kidney Weight (bpk mice; [4]): 1.61 g | Kidney/Body weight (bpk mice; [4]): 15.34% | decrease of BUN (bpk mice; 15 mg/kg q.d.): 60.5% | decrease of CT-CI (bpk mice; 15 mg/kg q.d.): 45.8% | decrease of creatinine (bpk mice; 15 mg/kg q.d.): 25% | improvement of MUCA (bpk mice; 15 mg/kg q.d.): 66.2% | reduction of kidney weight (bpk mice; 15 mg/kg q.d.): 40.3% | BUN (bpk mice; 15 mg/kg/day, PN Day 21): 43.20 mg/dL | CT-CI (bpk mice; 15 mg/kg/day, PN Day 21): 2.60 | Creatinine (bpk mice; 15 mg/kg/day, PN Day 21): 0.36 mg/dL | Kidney/Body weight (bpk mice; 15 mg/kg/day, PN Day 21): 12.36% | MUCA (bpk mice; 15 mg/kg/day, PN Day 21): 775.0 mOsmol | Kidney Weight (bpk mice; 15 mg/kg/day, PN Day 21, 15 mg/kg/day): 1.28 ± 0.09 g | Kidney Weight (bpk mice; 15 mg/kg/day, PN Day 21, listed as PRIM-001, 15 mg/kg/day): 1.28 g | ED50 [2]: 34 mg/kg | inhibition at 10 µM (Endothelin, ET-B (Human)): -13.6%
